Data on 16 molecules can be found in patent publication US9150558B2, “Nicotine receptor targeted compounds and compositions” (University of Florida Research Foundation, priority 2011, dated 2015).

Assay [1] concerns the target T1, α7 Receptor (alpha7 nAChR) (Rattus norvegicus, UniProt Q05941).
T1 construct: protein concentration of the rat brain membranes contained in the pellet; tissue Pel-Freeze Biologicals; host or cells: whole male Sprague-Dawley rat brain membranes
As to the kind of experiment: Displacement binding of 125I-α-bungarotoxin to rat brain membranes (α7 nAChR). Particulars: for α7/α4β2 Selectivity (Selectivity factor): Ki for alpha4beta2 binding divided by Ki for alpha7 binding, rat brain; for Enantiomeric Selectivity: given once per enantiomer pair, on the line of the first enantiomer, rat α7 binding. From the text: As used herein, the term “selectively binds,” “selective binding,” and cognates thereof refer to anabaseine compounds that preferentially bind one type of nicotinic acetylcholine receptor relative to another type of acetylcholine receptor (e.g., α7 nAChR versus the α4β2 nAChR). Because Ki is an inverse measure of affinity, binding selectivity of a compound for the α7 nAChR versus the α4β2 nAChR is expressed by dividing the Ki for binding to the α4β2 nAChR by the Ki for binding to the α7 nAChR. In one embodiment, a compound of the invention selectively binds α7 nAChR compared to α4β2 nAChR. The selectivity of a compound of the invention for α7 nAChR over α4β2 nAChR is at least 2, 3, 4, 5, 6, 7, 8, 9, 10, 11, 12, 13, 14, 15, or more. In another embodiment, a compound of the invention selectively binds α4β2 nAChR compared to α7 nAChR. The selectivity of a compound of the invention for α4β2 nAChR over α7 nAChR is at least 2, 3, 4, 5, 6, 7, 8, 9, 10, 11, 12, 13, 14, 15, or more. Binding to the α7 and α4β2 nAChR (including relative binding to each of these receptors) can be determined by the skilled artisan using the methods known in the art, in particular in view of the teachings provided herein. In particular, the assays used to determine selective binding are according to Marks and Collins for [^125I]alpha-bungarotoxin experiments (for alpha7 receptor binding) and a modified method by Pabreza et al. for [^3H]cytisine experiments (for α4β2), used as described in US 2009/0215705.
(§1) Whole male Sprague-Dawley rat brains (Pel-Freeze Biologicals, Rogers, Ariz.) were homogenized with a 30 ml Wheaton (location) glass homogenizing tube and pestle in binding saline (120 mM NaCl, 5 mM KCl, 2 mM CaCl2, 1 mM MgCl2, 50 mM Tris-TrisHCl buffer, pH 7.4). After the homogenate was centrifuged at 11,000 rpm (convert to ×G) for a 10 min, the resulting pellet was resuspended in fresh binding saline and homogenized and centrifuged again. A protein assay (BCA, Pierce, Rockford, Ill.) was then performed to obtain the protein concentration of the rat brain membranes contained in the pellet, which was stored at −85° C. before use.
Radioligands used in the displacement binding assays were obtained from Perkin Elmer Life and Analytical Sciences (Boston, Mass.). ^3H-Cytisine was used to selectively bind to alpha4beta2 nAChRs and ^125I-α-bungarotoxin (α-Btx) for alpha? nAChRs. ^3H-Cytisine (34 Ci/mmol) experiments were performed according to Flores et al. (1992) with a few minor alterations, specifically that the incubation time was increased to four hours at 4° C. to assure binding equilibrium. The ^125I-α-Btx (136 Ci/mmol) experiments involved 37° C. incubation for three hours to assure equilibration. Both radioligands were generally tested at final concentrations of 1 nM. Membranes at the above mentioned concentrations were suspended in binding saline containing 2 mg/ml of bovine serum albumin (Sigma, St. Louis, Mo.) to reduce non-specific binding. For each radioligand, nonspecific binding was measured in the presence of a final concentration of 1 mM (S)-nicotine hydrogen tartrate salt (Sigma, St. Louis, Mo.). After incubation, radioligand bound to membranes in 48 tubes was rapidly collected by vacuum filtration using a Brandel cell harvester (Gaithersburg, Md.) and Whatman GF/C glass fiber filters that were pre-soaked in 0.5% polyethylenimine for 45 minutes to reduce nonspecific binding. The radiolabeled membranes were rapidly washed three times with 3 ml ice-cold binding saline to separate bound from free radioligand. Filters containing ^3H-cytisine bound membranes were placed in 20 ml scintillation tubes and suspended in 8 mls of 30% Scintisafe scintillation fluid (Fisher), then counted in a Beckman LS-6500 liquid scintillation counter (Fullerton, Calif.). Filters containing ^125I-α-Btx bound membranes were placed in 4 ml scintillation vials and counted in a Beckman 5500B gamma counter (Fullerton, Calif.). […]

Assay [2] addresses T2, α4β2 Receptor (alpha4beta2 nAChR) (Rattus norvegicus, UniProt P09483+P12390).
T2 construct: protein concentration of the rat brain membranes contained in the pellet; tissue Pel-Freeze Biologicals; host or cells: whole male Sprague-Dawley rat brain membranes
As to the kind of experiment: Displacement binding of 3H-cytisine to rat brain membranes (α4β2 nAChR). Here is the method:
as §1
Radioligands used in the displacement binding assays were obtained from Perkin Elmer Life and Analytical Sciences (Boston, Mass.). ^3H-Cytisine was used to selectively bind to alpha4beta2 nAChRs and ^125I-α-bungarotoxin (α-Btx) for alpha? nAChRs. ^3H-Cytisine (34 Ci/mmol) experiments were performed according to Flores et al. (1992) with a few minor alterations, specifically that the incubation time was increased to four hours at 4° C. to assure binding equilibrium. The ^125I-α-Btx (136 Ci/mmol) experiments involved 37° C. incubation for three hours to assure equilibration. Both radioligands were generally tested at final concentrations of 1 nM. Membranes at the above mentioned concentrations were suspended in binding saline containing 2 mg/ml of bovine serum albumin (Sigma, St. Louis, Mo.) to reduce non-specific binding. For each radioligand, nonspecific binding was measured in the presence of a final concentration of 1 mM (S)-nicotine hydrogen tartrate salt (Sigma, St. Louis, Mo.). After incubation, radioligand bound to membranes in 48 tubes was rapidly collected by vacuum filtration using a Brandel cell harvester (Gaithersburg, Md.) and Whatman GF/C glass fiber filters that were pre-soaked in 0.5% polyethylenimine for 45 minutes to reduce nonspecific binding. The radiolabeled membranes were rapidly washed three times with 3 ml ice-cold binding saline to separate bound from free radioligand. Filters containing ^3H-cytisine bound membranes were placed in 20 ml scintillation tubes and suspended in 8 mls of 30% Scintisafe scintillation fluid (Fisher), then counted in a Beckman LS-6500 liquid scintillation counter (Fullerton, Calif.). Filters containing ^125I-α-Btx bound membranes were placed in 4 ml scintillation vials and counted in a Beckman 5500B gamma counter (Fullerton, Calif.).
Displacement assay binding data were analyzed using GraphPad Prism software (San Diego, Calif.). The mean counts per minute values for each concentration of a given compound concentration were obtained from 4 replicates. The data were fitted to a sigmoidal concentration response curve from which the Hill slope (n) and IC50 (X) values were estimated: Y=Bottom+(Top−Bottom)/(1+10^(Log IC50-X)n) Here, Top=maximal specific binding of radioligand at the top of the curve and Bottom=minimum specific binding observed at high concentrations of the displacing ligand. […] Results and Discussion

The mark [3] stands for this setting: rat brain membranes, 3H-cytisine 1 nM, 4° C. four hours, read-out: α4β2 Receptor Rat Ki.
The mark [4] stands for this setting: rat brain membranes, 125I-α-Btx 1 nM, 37° C. three hours, read-out: α7 Receptor Rat Ki.

The structures appear in SMILES notation. Read-outs that look alike come from different tables or passages of the source.

T1 sequence (Q05941 23-502): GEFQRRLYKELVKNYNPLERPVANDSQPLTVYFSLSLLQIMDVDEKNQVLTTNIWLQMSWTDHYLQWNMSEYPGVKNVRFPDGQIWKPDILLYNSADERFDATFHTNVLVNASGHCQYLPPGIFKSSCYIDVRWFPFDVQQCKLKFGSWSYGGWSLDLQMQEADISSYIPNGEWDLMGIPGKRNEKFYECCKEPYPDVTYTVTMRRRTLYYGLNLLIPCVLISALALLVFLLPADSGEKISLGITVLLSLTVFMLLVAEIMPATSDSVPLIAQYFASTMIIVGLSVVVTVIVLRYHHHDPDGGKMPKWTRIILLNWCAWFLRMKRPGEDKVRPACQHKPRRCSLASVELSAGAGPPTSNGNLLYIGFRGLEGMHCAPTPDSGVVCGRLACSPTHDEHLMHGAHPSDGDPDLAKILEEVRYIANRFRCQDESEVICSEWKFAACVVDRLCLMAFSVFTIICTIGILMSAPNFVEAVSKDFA
T2 sequence (P09483 31-630): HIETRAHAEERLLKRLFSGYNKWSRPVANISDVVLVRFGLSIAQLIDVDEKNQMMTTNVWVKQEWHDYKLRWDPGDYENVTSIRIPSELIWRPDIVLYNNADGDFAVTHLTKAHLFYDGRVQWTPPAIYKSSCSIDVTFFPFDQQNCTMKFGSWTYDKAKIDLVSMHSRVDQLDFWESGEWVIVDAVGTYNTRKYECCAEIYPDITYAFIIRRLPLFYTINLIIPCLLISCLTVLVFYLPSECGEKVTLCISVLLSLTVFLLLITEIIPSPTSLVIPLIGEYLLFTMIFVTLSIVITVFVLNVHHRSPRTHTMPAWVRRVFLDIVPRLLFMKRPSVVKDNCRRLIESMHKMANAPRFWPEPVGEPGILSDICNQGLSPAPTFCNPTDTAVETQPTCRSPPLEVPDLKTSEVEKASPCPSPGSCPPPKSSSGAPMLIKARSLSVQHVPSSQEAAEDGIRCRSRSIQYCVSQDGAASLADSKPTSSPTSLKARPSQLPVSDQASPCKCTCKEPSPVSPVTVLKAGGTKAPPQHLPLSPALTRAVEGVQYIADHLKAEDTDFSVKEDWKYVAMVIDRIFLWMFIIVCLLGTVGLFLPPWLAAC
T2 sequence (P12390 25-500): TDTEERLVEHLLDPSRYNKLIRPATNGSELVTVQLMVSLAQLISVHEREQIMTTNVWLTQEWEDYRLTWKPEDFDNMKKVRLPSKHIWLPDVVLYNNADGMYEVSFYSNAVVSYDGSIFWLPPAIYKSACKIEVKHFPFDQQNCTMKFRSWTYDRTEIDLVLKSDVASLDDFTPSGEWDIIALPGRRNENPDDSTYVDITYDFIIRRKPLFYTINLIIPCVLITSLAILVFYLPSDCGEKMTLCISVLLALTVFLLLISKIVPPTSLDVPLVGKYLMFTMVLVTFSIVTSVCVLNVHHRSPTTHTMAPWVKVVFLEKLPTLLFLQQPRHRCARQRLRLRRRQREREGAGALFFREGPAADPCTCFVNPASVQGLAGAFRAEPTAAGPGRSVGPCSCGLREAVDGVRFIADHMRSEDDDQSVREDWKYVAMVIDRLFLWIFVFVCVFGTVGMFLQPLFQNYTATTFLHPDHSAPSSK

In general, Ki refers to a dissociation constant, usually derived from enzyme kinetics or from competition with a known ligand. Consider `COc1ccc(/C=C2/C(c3cccnc3)=N[C@H]3CC[C@@H]2C3)c(OC)c1` [Compound 12, (1S,5R,E)-4-(2,4-dimethoxybenzylidene)-3-(pyridin-3-yl)-2-azabicyclo[3.2.1]oct-2-ene], for which, in assay [1], the affinity, expressed as Ki, was 16.4 nM; the “α7/α4β2 Selectivity (Selectivity factor)” value is recorded as 13; the “Enantiomeric Selectivity” value is given as 270. For the same molecule, the Ki in assay [2] (setting [3]) worked out at 219 nM.
For the molecule `COc1ccc(C=C2CC[C@@H](C)N=C2c2cccnc2)c(OC)c1` [Compound 9, 3-(DMXB)-6(R)-methyl-anabaseine], in assay [1], the Ki was 401 nM and the “α7/α4β2 Selectivity (Selectivity factor)” value amounted to 0.86. The Ki in assay [2] (setting [3]) was found to be 344 nM.
For `COc1ccc(/C=C2/C(c3cccnc3)=NCC[C@@H]2C)c(OC)c1` [Compound 5, 3-(2,4-Dimethoxybenzylidene)-4(S)-methyl-anabaseine], in assay [1], the Ki was 125 nM and the “α7/α4β2 Selectivity (Selectivity factor)” value was 1.5. Besides, the Ki in assay [2] (setting [3]) was found to be 191 nM.
On to `Oc1ccc(/C=C2/C(c3cccnc3)=N[C@H]3CC[C@@H]2C3)cc1` [Compound 14, 4-((E)-((1S,5R)-3-(pyridin-3-yl)-2-azabicyclo[3.2.1]oct-2-en-4-ylidene)methyl)phenol], for which the Ki was found to be 34.1 nM in assay [1] and 72.5 nM in assay [2]. In addition, the “α7/α4β2 Selectivity (Selectivity factor)” value in assay [1] is listed as 2.1.
For `COc1ccc(/C=C2\CC[C@H](C)N=C2c2cccnc2)c(OC)c1` [Compound 8, 3-(2,4-Dimethoxybenzylidene)-6(S)-methyl-anabaseine], in assay [1], affinity was put at a Ki of 208 nM, the “α7/α4β2 Selectivity (Selectivity factor)” value was 2.8 and the “Enantiomeric Selectivity” value is listed as 3.3. Moreover, the Ki in assay [2] (setting [3]) stood at 588 nM.
For the molecule `C[C@H]1CC/C(=C\c2ccc(N)cc2)C(c2cccnc2)=N1` [Compound 15, 3-(4-Aminobenzylidene)-6(S)-methyl-anabaseine], in assay [1], the Ki is 73 nM and the “α7/α4β2 Selectivity (Selectivity factor)” value is 4.3. In addition, in assay [2] (setting [3]), the Ki was 314 nM.
For `COc1ccc(C=C2C(c3cccnc3)=NC(C)CC2C)c(OC)c1` (stereo not shown) [Compound 10], in assay [1], the “α7/α4β2 Selectivity (Selectivity factor)” value was 1.3 and the “Enantiomeric Selectivity” value turned out to be 11. In addition, the Ki in assay [1] (setting [4]) came out at 37.6 nM. In assay [2] (setting [3]), the Ki worked out at 49.8 nM.
Consider `Oc1ccc(C=C2CCCN=C2c2cccnc2)cc1` [Compound 3, reference compound], for which the “α7/α4β2 Selectivity (Selectivity factor)” value in assay [1] stood at 1.2. Further, in assay [2] (setting [3]), the Ki was found to be 450 nM.
As to `Nc1ccc(/C=C2/C(c3cccnc3)=N[C@H]3CC[C@@H]2C3)cc1` [Compound 16, 3-(4-Aminobenzylidene)-4(R),6(S)-ethylene-anabaseine], in assay [1], the inhibition constant Ki is 3.43 nM and the “α7/α4β2 Selectivity (Selectivity factor)” value came out at 9.9. Also, the inhibitory constant (Ki) in assay [2] stood at 34.1 nM.
For `COc1ccc(C=C2C(c3cccnc3)=NCC[C@H]2C)c(OC)c1` [Compound 4, 3-(DMXB)-4(R)-methyl-anabaseine], in assay [1], the inhibitory constant (Ki) was 62 nM, the “α7/α4β2 Selectivity (Selectivity factor)” value turned out to be 2.5 and the “Enantiomeric Selectivity” value was 2.0. Further, the Ki in assay [2] (setting [3]) turned out to be 153 nM.
Consider `COc1ccc(C=C2CC(C)CN=C2c2cccnc2)c(OC)c1` (stereo not shown) [Compound 7], for which affinity in assay [1] was put at a Ki of 1500 nM.
`COc1ccc(/C=C2\CCCN=C2c2cccnc2)c(OC)c1` [Compound 2, 3-(2,4-dimethoxybenzylidene)-anabaseine, reference compound]: the “α7/α4β2 Selectivity (Selectivity factor)” value in assay [1] worked out at 1.91.
Regarding `COc1ccc(/C=C2/C(c3cccnc3)=N[C@@H]3CC[C@H]2C3)c(OC)c1` [Compound 13, (1R,5S,E)-4-(2,4-dimethoxybenzylidene)-3-(pyridin-3-yl)-2-azabicyclo[3.2.1]oct-2-ene], in assay [1], the Ki was determined as 4400 nM and the “α7/α4β2 Selectivity (Selectivity factor)” value amounted to 0.079. Also, in assay [2] (setting [3]), the Ki is 347 nM.
For `c1cncc(C2=NCCCC2)c1` [Compound 1, anabaseine, reference compound], in assay [1], affinity was put at a Ki of 290 nM and the “α7/α4β2 Selectivity (Selectivity factor)” value was found to be 0.26. In assay [2], this molecule displayed a Ki of 76 nM.
Turning to `COc1ccc(/C=C2/C(c3cccnc3)=N[C@H](C)C[C@@H]2C)c(OC)c1` [Compound 11], in assay [1], the “α7/α4β2 Selectivity (Selectivity factor)” value came out at 1.5. The Ki in assay [1] (setting [4]) was found to be 409 nM; in assay [2] (setting [3]) it was 610 nM.
Turning to `COc1ccc(C=C2CC(C)CN=C2c2cccnc2)c(OC)c1` (stereo not shown) [Compound 6], in assay [1], the “Enantiomeric Selectivity” value amounted to 6.8. The Ki in assay [1] (setting [4]) was found to be 220 nM.
